This note sets out measurements from patent US20220282217A1, “COMPOSITIONS AND METHODS FOR PREPARING T CELL COMPOSITIONS AND USES THEREOF” (priority 2019, published 2022).

Test [1] has as its target HLA-A03.01 (Homo sapiens, UniProt P04439). Nature of the test: Class I MHC peptide binding affinity (displacement of radiolabeled reference peptide). The conditions noted are these: allele A03.01; read-out: Observed Affinity (IC50; (nM)).
The target in test [2] is HLA-A01.01 (Homo sapiens, UniProt P04439, A114D/A174V/A182V/D101N/D185E/E176A/E190D/L180R/Q94H/R68K/S129P/T187R/V100A/V91M/W191G). The test is described as above. The gist of the method: (§1)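 Read-out: radioactivity of reference peptide retained on MHCI, separated from free label by gel-filtration size exclusion. Competing peptides are titrated against the preformed complexes and incubated two days beforehand.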

The target in test [3] is HLA-A02.01 (Homo sapiens, UniProt P04439, D140Y/D185E/D98H/E176V/E277Q/G131W/G231S/I119V/I121R/I166T/I218V/L300P/L318F/N151K/N90K/P208A/P217A/Q86G/Q94H/R138H/R169H/T345S). The test is described as above. The gist of the method: as §1
The target of test [4] is T1, HLA-A02.01 (Homo sapiens, UniProt P04439, D140Y/D185E/D98H/E176V/E277Q/G131W/G231S/I119V/I121R/I166T/I218V/N151K/N90K/P208A/P217A/Q86G/Q94H/R138H/R169H).
T1 construct: made in house; host or cells: E. coli
Nature of the test: Class I MHC peptide binding stability (pMHC-I dissociation, 125I-labeled light chain). The conditions noted are these: for Stability (T1/2 (h)): allele A02.01.

Test [5] has as its target HLA-A24.02. Nature of the test: Class I MHC peptide binding affinity (displacement of radiolabeled reference peptide). Further details: species or system human.
The test system of test [6] is HLA-A24.02. Briefly: Class I MHC peptide binding stability (pMHC-I dissociation, 125I-labeled light chain). More on the design: species or system human. As to conditions: for Stability (T1/2 (h)): allele A24.02.
Test [7] concerns the target HLA-B07.02 (Homo sapiens, UniProt P01889). Briefly: Class I MHC peptide binding affinity (displacement of radiolabeled reference peptide).
Where [8] appears, read: allele A01.01, read-out: Observed Affinity (IC50, (nM)).
[9] abbreviates: allele A02.01, read-out: Observed Affinity (IC50, (nM)).
Where [10] appears, read: allele A24.02, read-out: Observed Affinity (IC50, (nM)).
The mark [11] stands for this setting: Observed Affinity (IC50, (nM)), allele A01.01.

Where two headings read alike, the source gives them in different places. Where a SMILES comes first, the peptide text is derived from it.

In the case of `CC(C)C[C@H](NC(=O)[C@H](Cc1ccccc1)NC(=O)[C@H](CO)NC(=O)[C@H](CC(C)C)NC(=O)[C@@H](N)CS)C(=O)N[C@@H](CO)C(=O)N[C@@H](CO)C(=O)N[C@@H](Cc1c[nH]c2ccccc12)C(=O)N[C@@H](CC(=O)O)C(=O)N[C@@H](Cc1ccc(O)cc1)C(=O)O` (H-CLSFLSSWDY-OH; N-terminus and C-terminus assumed), the IC50 in test [1] was 2710 nM; in test [2] (setting [8]) it was 987 nM.
In the case of `CC[C@H](C)[C@H](NC(=O)[C@H](CC(=O)O)NC(=O)[C@H](Cc1ccccc1)NC(=O)[C@H](CC(C)C)NC(=O)[C@@H](NC(=O)[C@H](CCC(=O)O)NC(=O)[C@@H](NC(=O)[C@H](CCSC)NC(=O)[C@@H](N)Cc1c[nH]c2ccccc12)[C@@H](C)O)[C@@H](C)O)C(=O)N[C@H](C(=O)O)C(C)C` (H-WMTETLFDIV-OH; N-terminus and C-terminus assumed), the IC50 is 40 nM in test [3] (setting [9]) and 14400 nM in test [2] (setting [8]). Besides, the “Stability (T1/2 (h))” value in test [4] is given as 0.4 h.
In the case of `CC(C)C[C@H](NC(=O)[C@H](CC(C)C)NC(=O)[C@H](CC(C)C)NC(=O)[C@H](CC(=O)O)NC(=O)[C@H](CS)NC(=O)[C@H](CC(C)C)NC(=O)[C@@H]1CCCN1C(=O)[C@@H](NC(=O)[C@@H](N)C(C)C)C(C)C)C(=O)O` (H-VVPLCDLLL-OH; N-terminus and C-terminus assumed), the IC50 turned out to be 3890 nM in test [5] (setting [10]) and 1200 nM in test [3] (setting [9]). For the same molecule, in test [6], the “Stability (T1/2 (h))” value stood at 0.4 h.
As for `CC(C)[C@H](NC(=O)[C@H](CCC(=O)O)NC(=O)[C@H](CC(N)=O)NC(=O)[C@H](CO)NC(=O)CN)C(=O)N[C@H](C(=O)N[C@H](C(=O)N[C@@H](CCCNC(=N)N)C(=O)N[C@@H](Cc1ccc(O)cc1)C(=O)O)[C@@H](C)O)[C@@H](C)O` (H-GSNEVTTRY-OH; N-terminus and C-terminus assumed), in test [2] (setting [8]), the IC50 worked out at 606 nM.
Consider `CC(C)C[C@H](NC(=O)[C@H](CC(C)C)NC(=O)[C@H](CC(C)C)NC(=O)[C@H](CC(=O)O)NC(=O)[C@H](CO)NC(=O)[C@H](CC(C)C)NC(=O)[C@@H]1CCCN1C(=O)[C@@H](NC(=O)[C@@H](N)C(C)C)C(C)C)C(=O)O` (H-VVPLSDLLL-OH; N-terminus and C-terminus assumed), for which the IC50 in test [5] (setting [10]) is 8250 nM; in test [3] (setting [9]) it was 2550 nM. Besides, the “Stability (T1/2 (h))” value in test [6] came out at 0.5 h.
As to `CC[C@H](C)[C@H](N)C(=O)N[C@@H](CC(C)C)C(=O)N[C@@H](CC(=O)O)C(=O)N[C@H](C(=O)N[C@@H](C)C(=O)NCC(=O)N[C@@H](CCCNC(=N)N)C(=O)N[C@@H](CCC(=O)O)C(=O)N[C@@H](CCC(=O)O)C(=O)N[C@@H](Cc1ccc(O)cc1)C(=O)O)[C@@H](C)O` (H-ILDTAGREEY-OH; N-terminus and C-terminus assumed), the IC50 in test [2] (setting [11]) is 7 nM.
With `CSCC[C@H](NC(=O)[C@H](CC(C)C)NC(=O)[C@H](CCC(N)=O)NC(=O)[C@@H](N)CCSC)C(=O)N1CCC[C@H]1C(=O)N[C@@H](Cc1ccccc1)C(=O)NCC(=O)N[C@@H](CS)C(=O)N[C@@H](CC(C)C)C(=O)O`, the Kd in test [7] (EGFR T790M peptides, HLA allele B07.02) was 1590 nM; in test [3] (EGFR T790M peptides, HLA allele A02.01, read-out: Affinity) it was 116 nM. Besides, the IC50 in test [3] (setting [9]) was determined as 166 nM. Also, in test [4] (EGFR T790M peptides, HLA allele A02.01), the “Stability (half-life (hr.))” value amounted to 22.1 min. Besides, the “Stability (T1/2 (h))” value in test [4] was found to be 0.4 h.
In the case of `CSCC[C@H](NC(=O)[C@H](CCC(=O)O)NC(=O)[C@H](CCCNC(=N)N)NC(=O)[C@H](CC(C)C)NC(=O)[C@H](Cc1ccc(O)cc1)NC(=O)[C@H](CC(N)=O)NC(=O)[C@H](CC(C)C)NC(=O)[C@H](CC(C)C)NC(=O)[C@@H](N)CO)C(=O)O`, the IC50 was 866 nM in test [7] (BTK C481S peptide, HLA Allele B07.02, read-out: Affinity); 67.7 nM in test [3] (BTK C481S peptide, HLA Allele A02.01, read-out: Affinity); 87 nM in test [3] (setting [9]). Further, the “Stability (half-life (hr.))” value in test [4] (BTK C481S peptide, HLA Allele A02.01) is 182.6 min. In addition, in test [4], the “Stability (T1/2 (h))” value was found to be 3 h.
Turning to `CC[C@H](C)[C@H](NC(=O)[C@@H]1CCCN1C(=O)[C@H](CC(C)C)NC(=O)[C@H](Cc1ccccc1)NC(=O)[C@H](CC(C)C)NC(=O)[C@H](CO)NC(=O)[C@H](CC(=O)O)NC(=O)[C@@H](NC(=O)[C@H](CC(C)C)NC(=O)[C@@H](N)CCSC)[C@@H](C)O)C(=O)O`, the IC50 in test [2] (setting [8]) is 7670 nM. Further, in test [4], the “Stability (T1/2 (h))” value is recorded as 1 h.
For `C[C@H](NC(=O)[C@H](CC(N)=O)NC(=O)[C@@H](NC(=O)[C@@H](N)[C@@H](C)O)[C@@H](C)O)C(=O)N[C@@H](Cc1ccccc1)C(=O)N[C@@H](CO)C(=O)NCC(=O)N[C@@H](CCC(=O)O)C(=O)N[C@@H](Cc1ccc(O)cc1)C(=O)O` (H-TTNAFSGEY-OH; N-terminus and C-terminus assumed), in test [2] (setting [8]), the IC50 was 4.4 nM.
Turning to `CC[C@H](C)[C@H](N)C(=O)N[C@@H](CC(C)C)C(=O)N[C@@H](CC(=O)O)C(=O)N[C@H](C(=O)N[C@@H](C)C(=O)NCC(=O)N[C@@H](Cc1c[nH]cn1)C(=O)N[C@@H](CCC(=O)O)C(=O)N[C@@H](CCC(=O)O)C(=O)N[C@@H](Cc1ccc(O)cc1)C(=O)O)[C@@H](C)O` (H-ILDTAGHEEY-OH; N-terminus and C-terminus assumed), in test [2] (setting [11]), the IC50 was 64.2 nM.
In test [2], `CC[C@H](C)[C@H](NC(=O)[C@H](CCCCN)NC(=O)[C@H](Cc1ccc(O)cc1)NC(=O)[C@@H](NC(=O)[C@@H](NC(=O)[C@H](CC(=O)O)NC(=O)[C@H](CO)NC(=O)[C@@H](N)CCSC)[C@@H](C)O)[C@@H](C)O)C(=O)N[C@@H](Cc1ccc(O)cc1)C(=O)O` (H-MSDTTYKIY-OH; N-terminus and C-terminus assumed) had an IC50 of 10.2 nM.
As to `CC(C)C[C@H](NC(=O)[C@H](Cc1ccccc1)NC(=O)[C@H](CO)NC(=O)[C@@H](N)CC(C)C)C(=O)N[C@@H](CO)C(=O)N[C@@H](CO)C(=O)N[C@@H](Cc1c[nH]c2ccccc12)C(=O)N[C@@H](CC(=O)O)C(=O)N[C@@H](Cc1ccc(O)cc1)C(=O)O` (H-LSFLSSWDY-OH; N-terminus and C-terminus assumed), the IC50 in test [2] (setting [8]) was 52.9 nM.
Turning to `CSCC[C@H](NC(=O)[C@H](Cc1ccc(O)cc1)NC(=O)[C@@H](N)CCC(=O)O)C(=O)N[C@@H](C)C(=O)N[C@@H](CC(N)=O)C(=O)NCC(=O)N[C@@H](CO)C(=O)N[C@@H](CC(C)C)C(=O)N[C@@H](CC(C)C)C(=O)O` (H-EYMANGSLL-OH; N-terminus and C-terminus assumed), the IC50 was 4.96 nM in test [5] (BTK C481S peptide, HLA Allele A24.02, read-out: Affinity) and 5 nM in test [5] (setting [10]). For the same molecule, the “Stability (half-life (hr.))” value in test [6] (BTK C481S peptide, HLA Allele A24.02) was 343 min.
In turn, `CC[C@H](C)[C@H](NC(=O)[C@H](CCCCN)NC(=O)[C@H](Cc1ccc(O)cc1)NC(=O)[C@@H](NC(=O)[C@@H](NC(=O)[C@H](CC(=O)O)NC(=O)[C@H](CO)NC(=O)[C@H](CCSC)NC(=O)[C@@H](N)C(C)C)[C@@H](C)O)[C@@H](C)O)C(=O)N[C@@H](Cc1ccc(O)cc1)C(=O)O` (H-VMSDTTYKIY-OH; N-terminus and C-terminus assumed) showed an IC50 in test [2] of 376 nM.
For `CC[C@H](C)[C@H](NC(=O)[C@H](CC(C)C)NC(=O)[C@H](CCC(N)=O)NC(=O)[C@@H](NC(=O)[C@@H](NC(=O)[C@H](CO)NC(=O)[C@@H](NC(=O)[C@H](CC(C)C)NC(=O)[C@@H](N)CS)[C@@H](C)O)[C@@H](C)O)C(C)C)C(=O)N[C@@H](CCSC)C(=O)O`, the Kd in test [3] was 537 nM; in test [2], 8280 nM. The IC50 in test [3] (Observed Affinity (IC50, (nM)), allele A02.01) was determined as 716 nM; in test [2] (setting [11]), 11000 nM.
For `CC[C@H](C)[C@H](N)C(=O)N[C@@H](CC(C)C)C(=O)N[C@@H](CC(=O)O)C(=O)N[C@H](C(=O)N[C@@H](C)C(=O)NCC(=O)N[C@@H](CC(C)C)C(=O)N[C@@H](CCC(=O)O)C(=O)N[C@@H](CCC(=O)O)C(=O)N[C@@H](Cc1ccc(O)cc1)C(=O)O)[C@@H](C)O` (H-ILDTAGLEEY-OH; N-terminus and C-terminus assumed), the IC50 in test [2] (setting [11]) worked out at 8.6 nM.
In the case of `C[C@H](NC(=O)[C@H](CC(N)=O)NC(=O)[C@@H](NC(=O)[C@@H](NC(=O)[C@@H](N)Cc1ccc(O)cc1)[C@@H](C)O)[C@@H](C)O)C(=O)N[C@@H](Cc1ccccc1)C(=O)N[C@@H](CO)C(=O)NCC(=O)N[C@@H](CCC(=O)O)C(=O)N[C@@H](Cc1ccc(O)cc1)C(=O)O` (H-YTTNAFSGEY-OH; N-terminus and C-terminus assumed), the IC50 in test [2] (setting [8]) was 10.5 nM.
Still for that read-out and setting: the same measure for `CC(C)[C@H](NC(=O)[C@H](CCC(=O)O)NC(=O)[C@H](CC(N)=O)NC(=O)[C@H](CO)NC(=O)CNC(=O)[C@@H](N)[C@@H](C)O)C(=O)N[C@H](C(=O)N[C@H](C(=O)N[C@@H](CCCNC(=N)N)C(=O)N[C@@H](Cc1ccc(O)cc1)C(=O)O)[C@@H](C)O)[C@@H](C)O` (H-TGSNEVTTRY-OH; N-terminus and C-terminus assumed): 15500 nM.
